{"source": "ChEMBL document CHEMBL5030556", "about": "“Selection and Identification of Novel Antibacterial Agents against Planktonic Growth and Biofilm Formation of Enterococcus faecalis” (J Med Chem, 2021)", "key": {"Enterococcus faecium [1]": {"tested_on": "Enterococcus faecium", "assay": "Antibacterial activity against Enterococcus faecium EF16M64 assessed as reduction in visible bacterial growth incubated for 16 to 20 hrs by microdilution broth assay", "format": "functional", "details": "time 16-20 hrs"}, "[2]": {"assay": "Cytotoxicity against african green monkey Vero cells assessed as inhibition of cell growth by MTT assay", "format": "cell-based", "details": "chlorocebus sabaeus"}, "Staphylococcus aureus [3]": {"tested_on": "Staphylococcus aureus", "assay": "Antibacterial activity against Staphylococcus aureus ATCC 35556 assessed as reduction in visible bacterial growth incubated for 16 to 20 hrs by microdilution broth assay", "format": "functional", "details": "time 16-20 hrs"}, "Enterococcus faecalis [4]": {"tested_on": "Enterococcus faecalis", "assay": "Antibiofilm activity against Enterococcus faecalis FB-1 assessed as inhibition of biofilm infection at 25 uM by fluid shear system", "format": "functional, organism-based"}, "Enterococcus faecalis [5]": {"tested_on": "Enterococcus faecalis", "assay": "Antibiofilm activity against Enterococcus faecalis assessed as inhibition of biofilm at 1/2 times of MIC incubated for 24 hrs", "format": "functional", "design": "scale not given: the % may be the effect or the level left"}, "Escherichia coli": {"tested_on": "Escherichia coli", "assay": "Antibacterial activity against Escherichia coli […] assessed as reduction in visible bacterial growth incubated for 16 to 20 hrs by microdilution broth assay", "format": "functional", "details": "time 16-20 hrs"}, "Staphylococcus aureus [6]": {"tested_on": "Staphylococcus aureus", "assay": "Antibiofilm activity against Staphylococcus aureus assessed as inhibition of biofilm formation at sub-MIC concentration", "format": "functional, organism-based"}, "Enterococcus faecalis [7]": {"tested_on": "Enterococcus faecalis", "assay": "Antibacterial activity against Enterococcus faecalis ATCC 29212 assessed as reduction in visible bacterial growth incubated for 16 to 20 hrs by microdilution broth assay", "format": "functional", "details": "time 16-20 hrs"}, "Enterococcus faecalis [8]": {"tested_on": "Enterococcus faecalis", "assay": "Antibiofilm activity against Enterococcus faecalis FB-1 assessed as eradication of mature biofilm measured after 72 hrs by semiquantitative microtiter assay", "format": "functional"}, "Enterococcus faecalis [9]": {"tested_on": "Enterococcus faecalis", "assay": "Bacteriostatic activity against planktonic cells of Enterococcus faecalis OG1RF measured by microdilution broth assay", "format": "functional, organism-based"}, "[10]": {"tested_on": "Staphylococcus epidermidis", "assay": "Antibacterial activity against Staphylococcus epidermidis ATCC 35984 assessed as reduction in visible bacterial growth incubated for 16 to 20 hrs by microdilution broth assay", "format": "functional", "details": "time 16-20 hrs"}, "Enterococcus faecalis [11]": {"tested_on": "Enterococcus faecalis", "assay": "Binding affinity to Enterococcus faecalis FB-1 YycG assessed as slow association and slow dissociation measured by Octet RED96 response assay"}, "Enterococcus faecium [12]": {"tested_on": "Enterococcus faecium", "assay": "Antibiofilm activity against Enterococcus faecium assessed as inhibition of biofilm formation at sub-MIC concentration", "format": "functional, organism-based"}, "[13]": {"assay": "Hemolytic activity against human erythrocytes at 200 uM incubated for 1 hr at 570 nm by spectrophotometry", "format": "ADME, tissue-based, Erythrocyte", "details": "read-out: Activity"}, "[14]": {"tested_on": "Staphylococcus epidermidis", "assay": "Antibiofilm activity against Staphylococcus epidermidis assessed as inhibition of biofilm formation at sub-MIC concentration", "format": "functional, organism-based"}, "Enterococcus faecalis [15]": {"tested_on": "Enterococcus faecalis", "assay": "Inhibition of biofilm formation of Enterococcus faecalis FB-1 assessed as inhibitory rate of formation at 100 uM for 24 hrs measured at 570 nm by crystal violet staining based spectrophotometry", "format": "functional"}, "[16]": {"assay": "Hemolytic activity against human erythrocytes at 50 uM incubated for 1 hr at 570 nm by spectrophotometry", "format": "ADME, tissue-based, Erythrocyte", "details": "read-out: Activity"}, "Enterococcus faecalis [17]": {"tested_on": "Enterococcus faecalis", "assay": "Antibacterial activity against Enterococcus faecalis FB-1 assessed as reduction in visible bacterial growth incubated for 16 to 20 hrs by microdilution broth assay", "format": "functional", "details": "time 16-20 hrs"}, "Enterococcus faecalis [18]": {"tested_on": "Enterococcus faecalis", "assay": "Antibiofilm activity against Enterococcus faecalis assessed as reduction in amount of viable biofilm-embedded bacterial cells at 50 uM in presence of daptomycin measured by YTO 9/PI staining followed by confocal laser scanning microscopy", "format": "functional"}, "Enterococcus faecalis [19]": {"tested_on": "Enterococcus faecalis", "assay": "Effect on initial adhesion capacity of Enterococcus faecalis assessed as attached cells at 25 uM for 6 hrs by crystal violet staining based microscopic assay (reference value: 0.412)", "format": "functional"}, "Enterococcus faecalis [20]": {"tested_on": "Enterococcus faecalis", "assay": "Antibiofilm activity against Enterococcus faecalis FB-1 assessed as inhibition of biofilm maturation at 1.56 uM measured after 24 hr", "format": "functional, organism-based"}, "Enterococcus faecalis [21]": {"tested_on": "Enterococcus faecalis", "assay": "Antibiofilm activity against Enterococcus faecalis FB-1 assessed as inhibition of biofilm maturation measured after 24 hr", "format": "functional, organism-based"}, "Enterococcus faecalis [22]": {"tested_on": "Enterococcus faecalis", "assay": "Antimicrobial activity against Enterococcus faecalis OG1RF assessed as reduction in visible bacterial growth incubated for 16 to 20 hrs by microdilution broth assay", "format": "functional", "details": "time 16-20 hrs"}, "Enterococcus faecalis [23]": {"tested_on": "Enterococcus faecalis", "assay": "Antibiofilm activity against Enterococcus faecalis assessed as reduction in amount of viable biofilm-embedded bacterial cells at 50 uM measured by YTO 9/PI staining followed by confocal laser scanning microscopy", "format": "functional"}, "Streptococcus agalactiae [24]": {"tested_on": "Streptococcus agalactiae", "assay": "Antibacterial activity against Streptococcus agalactiae NSGC64 assessed as reduction in visible bacterial growth incubated for 16 to 20 hrs by microdilution broth assay", "format": "functional", "details": "time 16-20 hrs"}, "Enterococcus faecalis [25]": {"tested_on": "Enterococcus faecalis", "assay": "Antibiofilm activity against Enterococcus faecalis FB-1 assessed as eradication of mature biofilm measured after 48 hrs by semiquantitative microtiter assay", "format": "functional"}, "[26]": {"assay": "Inhibition of Enterococcus faecalis OG1RF YycG autophosphorylation by Kinase-Glo luminescent kinase assay"}, "[27]": {"tested_on": "Staphylococcus epidermidis", "assay": "Antibacterial activity against Staphylococcus epidermidis ATCC 12228 assessed as reduction in visible bacterial growth incubated for 16 to 20 hrs by microdilution broth assay", "format": "functional", "details": "time 16-20 hrs"}, "Enterococcus faecalis [28]": {"tested_on": "Enterococcus faecalis", "assay": "Antibacterial activity against Enterococcus faecalis OG1RF assessed as reduction in visible bacterial growth incubated for 16 to 20 hrs by microdilution broth assay", "format": "functional", "details": "time 16-20 hrs"}, "Staphylococcus aureus [29]": {"tested_on": "Staphylococcus aureus", "assay": "Antibacterial activity against Staphylococcus aureus ATCC 29213 assessed as reduction in visible bacterial growth incubated for 16 to 20 hrs by microdilution broth assay", "format": "functional", "details": "time 16-20 hrs"}, "Enterococcus faecalis [30]": {"tested_on": "Enterococcus faecalis", "assay": "Bactericidal activity against Enterococcus faecalis OG1RF assessed as reduction in bacterial colonies incubated for 16 to 20 hrs by microdilution broth analysis", "format": "functional", "details": "time 16-20 hrs, read-out: MBC99.9"}, "Streptococcus agalactiae [31]": {"tested_on": "Streptococcus agalactiae", "assay": "Antibiofilm activity against Streptococcus agalactiae assessed as inhibition of biofilm formation at sub-MIC concentration", "format": "functional, organism-based"}, "Enterococcus faecalis [32]": {"tested_on": "Enterococcus faecalis", "assay": "Antibiofilm activity against Enterococcus faecalis assessed as reduction in amount of viable biofilm-embedded bacterial cells at 50 uM in presence of ampicillin measured by YTO 9/PI staining followed by confocal laser scanning microscopy", "format": "functional"}}, "note": "Active and inactive are the calls of the source. The calls are words filed in the database; no cut-off is given here.", "data": [{"compound": "COc1cc(C2C(C(=O)c3cc4ccccc4o3)=C(O)C(=O)N2c2nnc(SCc3ccccc3Cl)s2)ccc1O", "note": "(stereo not drawn)", "values": [{"measurement": "MIC", "setting": "Enterococcus faecium [1]", "result": "> 200", "unit": "µM"}, {"measurement": "CC50", "setting": "[2]", "result": "> 200", "unit": "µM"}, {"measurement": "MIC", "setting": "Staphylococcus aureus [3]", "result": "> 200", "unit": "µM"}, {"measurement": "Activity", "setting": "Enterococcus faecalis [4]", "result": "Active"}, {"measurement": "Activity", "setting": "Enterococcus faecalis [5]", "result": 74.8, "unit": "%"}, {"measurement": "MIC", "setting": "Escherichia coli", "result": "> 200", "unit": "µM"}, {"measurement": "Activity", "setting": "Staphylococcus aureus [6]", "result": "Active"}, {"measurement": "MIC", "setting": "Enterococcus faecalis [7]", "result": "> 200", "unit": "µM"}, {"measurement": "Activity", "setting": "Enterococcus faecalis [8]", "result": 66, "unit": "%"}, {"measurement": "Activity", "setting": "Enterococcus faecalis [9]", "result": "inactive"}, {"measurement": "MIC", "setting": "[10]", "result": "> 200", "unit": "µM"}, {"measurement": "Activity", "setting": "Enterococcus faecalis [11]", "result": "Active"}, {"measurement": "Activity", "setting": "Enterococcus faecium [12]", "result": "Active"}, {"measurement": "hemolysis at 1 h, 200 µM", "setting": "[13]", "result": 6.14, "unit": "%"}, {"measurement": "Activity", "setting": "[14]", "result": "Active"}, {"measurement": "inhibition at 100 µM", "setting": "Enterococcus faecalis [15]", "result": 92.7, "unit": "%"}, {"measurement": "hemolysis at 1 h, 50 µM", "setting": "[16]", "result": 2.77, "unit": "%"}, {"measurement": "MIC", "setting": "Enterococcus faecalis [17]", "result": "> 200", "unit": "µM"}, {"measurement": "Activity", "setting": "Enterococcus faecalis [18]", "result": 47.16, "unit": "%"}, {"measurement": "OD", "setting": "Enterococcus faecalis [19]", "result": 0.143}, {"measurement": "Activity", "setting": "Enterococcus faecalis [20]", "result": "Active"}, {"measurement": "Activity", "setting": "Enterococcus faecalis [21]", "result": "Dose-Dependent Effect"}, {"measurement": "MIC", "setting": "Enterococcus faecalis [22]", "result": "> 200", "unit": "µM"}, {"measurement": "Activity", "setting": "Enterococcus faecalis [23]", "result": 52.85, "unit": "%"}, {"measurement": "MIC", "setting": "Streptococcus agalactiae [24]", "result": "> 200", "unit": "µM"}, {"measurement": "Activity", "setting": "Enterococcus faecalis [25]", "result": 51, "unit": "%"}, {"measurement": "IC50", "setting": "[26]", "result": 6.1, "unit": "µM"}, {"measurement": "MIC", "setting": "[27]", "result": "> 200", "unit": "µM"}, {"measurement": "MIC", "setting": "Enterococcus faecalis [28]", "result": "> 200", "unit": "µM"}, {"measurement": "MIC", "setting": "Staphylococcus aureus [29]", "result": "> 200", "unit": "µM"}, {"measurement": "MBC", "setting": "Enterococcus faecalis [30]", "result": "> 200", "unit": "µM"}, {"measurement": "Activity", "setting": "Streptococcus agalactiae [31]", "result": "Active"}, {"measurement": "Activity", "setting": "Enterococcus faecalis [32]", "result": 72.71, "unit": "%"}]}]}
